Molecular target: Abl (Homo sapiens, UniProt P00519)
Assay: in vitro kinase assay with active recombinant Abl
Type: biochemical

Chain of Abl (P00519 whole entry): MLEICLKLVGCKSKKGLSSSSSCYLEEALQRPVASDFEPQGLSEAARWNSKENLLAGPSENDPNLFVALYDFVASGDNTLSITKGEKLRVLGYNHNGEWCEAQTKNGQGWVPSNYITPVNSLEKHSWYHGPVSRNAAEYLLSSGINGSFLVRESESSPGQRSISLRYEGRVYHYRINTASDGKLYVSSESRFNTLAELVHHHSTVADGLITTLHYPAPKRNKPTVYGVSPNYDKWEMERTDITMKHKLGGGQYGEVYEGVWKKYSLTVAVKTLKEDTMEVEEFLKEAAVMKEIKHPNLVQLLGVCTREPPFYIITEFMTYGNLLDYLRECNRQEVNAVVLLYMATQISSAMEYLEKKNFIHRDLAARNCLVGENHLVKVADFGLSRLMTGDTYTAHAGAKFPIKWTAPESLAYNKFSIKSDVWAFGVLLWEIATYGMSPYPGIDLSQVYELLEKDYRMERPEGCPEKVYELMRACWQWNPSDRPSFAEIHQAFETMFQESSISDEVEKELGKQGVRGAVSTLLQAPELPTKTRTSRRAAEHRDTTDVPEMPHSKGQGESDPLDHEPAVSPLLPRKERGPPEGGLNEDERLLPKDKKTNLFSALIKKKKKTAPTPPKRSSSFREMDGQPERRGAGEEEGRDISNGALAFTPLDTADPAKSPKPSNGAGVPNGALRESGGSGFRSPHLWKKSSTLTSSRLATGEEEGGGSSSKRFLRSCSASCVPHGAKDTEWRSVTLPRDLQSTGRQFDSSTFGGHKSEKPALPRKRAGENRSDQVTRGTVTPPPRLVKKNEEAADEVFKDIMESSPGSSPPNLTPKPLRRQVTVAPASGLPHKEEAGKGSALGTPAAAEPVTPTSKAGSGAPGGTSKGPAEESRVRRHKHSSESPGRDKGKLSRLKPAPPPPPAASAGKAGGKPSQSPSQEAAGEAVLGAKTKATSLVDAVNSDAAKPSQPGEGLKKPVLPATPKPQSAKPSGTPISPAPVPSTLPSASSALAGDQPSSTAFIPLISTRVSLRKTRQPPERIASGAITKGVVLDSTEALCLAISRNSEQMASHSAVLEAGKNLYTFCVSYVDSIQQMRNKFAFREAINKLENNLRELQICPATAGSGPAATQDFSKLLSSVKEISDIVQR

For `O=C1Nc2ccccc2C1=C1Nc2ccccc2C1=NOCC(O)CO` (stereo not shown) [E804], which IC50 is on record?
The IC50 was 8.7 µM.

Source: article PMC3361532 (2012)
